In PMC9295122, “Sialic Acid Derivatives Inhibit SiaT Transporters and Delay Bacterial Growth” (ACS Chemical Biology, 2022):
Like-named read-outs stand apart in the source and are kept apart here.

How the values were obtained:
Plasma stability, human = type: in vitro ADME; settings: 1 μM, 37 °C
Procedure: (§1) The reaction was started by the addition of the compound to blank plasma in LC vials after preincubation at 37 °C. The initial compound concentration was 1 μM. The reaction was stopped by the addition of ACN at seven time points (0, 0.5, 1, 2, 4, 6, and 23 h). Time point 0 h was about 15–20 s after spiking the plasma with the compound. The samples were centrifuged and the supernatant diluted and analyzed by LC–MS/MS to determine the % of compound remaining relative to the initial concentration of compound.

Plasma stability, mouse = type: in vitro ADME; settings: 1 μM, 37 °C
Procedure: as §1

Solubility screen = type: physicochemical; settings: aqueous buffer, kinetic from dmso stock; 100 mM phosphate buffer, pH 7.4, 1% DMSO; read-out: solubility (solubility screening)
Procedure: The compounds were dissolved in 10 mM DMSO solutions. The solubility was assessed by dilution in 0.1 M phosphate buffer pH 7.4 to a concentration of 100 μM.

[1] = Plasma-protein binding by RED, human; type: in vitro ADME; settings: pH 7.2, read-out: Plasma-protein binding by RED (% unbound compound, average n=2)
Procedure: (§2) The assay was run in a deep well plate containing RED inserts with semipermeable dialysis membranes. The reaction was started by adding the compounds to a blank plasma in a 5 μM concentration. Opposite to the blank plasma was a compartment containing isotonic sodium–phosphate buffer (pH 7.2) separated from the plasma by the membrane. The plate was equilibrated in a water bath at 37 °C for 4 h. Samples from both the plasma and the buffer side were matrix compensated before protein precipitation. The samples were centrifuged, and the supernatants were diluted and analyzed by LC–MS/MS to determine the % unbound compound. Two incubations per compound per species.

Plasma stability, dog = type: in vitro ADME; settings: 1 μM, 37 °C
Procedure: as §1

PmSiaT = molecular target: T1, PmSiaT (Proteus mirabilis, UniProt B4EZY7); assay: Isothermal titration calorimetry, PmSiaT; type: binding
T1 construct: made in house
T1 sequence (B4EZY7 1-496): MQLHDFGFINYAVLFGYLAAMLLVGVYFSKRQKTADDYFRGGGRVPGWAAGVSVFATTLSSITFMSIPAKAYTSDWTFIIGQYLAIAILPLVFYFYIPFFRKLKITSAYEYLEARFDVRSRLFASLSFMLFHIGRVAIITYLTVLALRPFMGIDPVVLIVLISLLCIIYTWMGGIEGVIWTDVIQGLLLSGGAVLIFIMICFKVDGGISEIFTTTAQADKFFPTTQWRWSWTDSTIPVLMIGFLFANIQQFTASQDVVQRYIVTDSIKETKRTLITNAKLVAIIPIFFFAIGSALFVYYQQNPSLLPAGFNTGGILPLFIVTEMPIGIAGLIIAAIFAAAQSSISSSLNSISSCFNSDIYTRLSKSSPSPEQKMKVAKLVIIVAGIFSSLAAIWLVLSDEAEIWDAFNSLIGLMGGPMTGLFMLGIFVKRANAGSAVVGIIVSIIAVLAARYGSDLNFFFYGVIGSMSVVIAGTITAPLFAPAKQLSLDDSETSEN
Procedure: The binding thermodynamic analysis performed via isothermal titration calorimetry (ITC) provides insights into dissociation constants (Kd) and the binding driving forces of compounds 3a, 3e, and 3f with PmSiaT and SaSiaT.
Isothermal titration calorimetric experiments were performed on an ITC200 instrument (MicroCal, Northampton, USA) at 25 °C using standard instrument settings (reference power of 6 μcal s^–1, stirring speed of 750 rpm, feedback mode high, and filter period of 2 s). Protein solutions were dialyzed against ITC buffer (50 mM Tris–HCl, 150 mM NaCl, with 0.0174% (w/v) DDM, pH 8.0 at 5 °C) prior to the experiments, and all the samples were prepared using the dialysate buffer to minimize dilution effects. Protein concentrations were determined spectrophotometrically with the specific absorbance at 280 nm employing an extinction coefficient of 76,445 mol^–1 cm^–1 for PmSiaT and 75,750 M^–1 cm^–1 for SaSiaT. […] In a typical experiment, a 0.3–1.0 mM inhibitor solution was titrated to a solution containing 30–50 μM of PmSiaT or 13–20 μM of SaSiaT to ensure >90% saturation. Baseline correction, peak integration, and nonlinear regression analysis of experimental data were performed using the NITPIC (version 1.2.2.)[41] and SEDPHAT (version 12.1b)[42] software packages. The stoichiometry parameter was manually constrained to a value of 1. Experiments were performed in triplicate and the 68% confidence intervals from global fitting of three experiments were calculated as an estimate of the experimental error. All the titration curves can be found in Figures S10–S15.

[2] = Metabolic stability in human liver microsomes; type: in vitro ADME; settings: for microsomal CLint at 1 µM: human liver microsomes, read-out: intrinsic clearance Clint; for Metabolic stability in human microsomes, Exp. 1 / Metabolic stability in human microsomes, Exp. 2: intrinsic clearance, 1 µM compound
Procedure: The assay was run in a 96-deep well format and solutions were prepared containing microsomes in phosphate buffer. The microsomes employed were from humans, rats, and mice. The reaction was initiated by addition of NADPH after preincubation at 37 °C with test compounds. The reaction was stopped by the addition of acetonitrile (ACN) at six time points (0, 5, 10, 15, 25, and 45 min), the samples were centrifuged, and the supernatant was diluted to determine the loss of compound by LC–MS/MS. Two incubations per compound per species. For further details regarding working concentrations, volumes, and final concentrations at incubation, refer to the supplementary section (Table S6). […]
Metabolic Metabolic Metabolic stability in stability in stability in Plasma-protein human mouse rat In vitro plasma stability binding by RED
Assay/compo microsome microsome microsome (% compound remaining after (% unbound und s s s 23 h) compound, (µL/min/m (µL/min/m (µL/min/m average n=2) g protein) g protein) g protein)
Exp. Exp. Exp. Exp. Exp. Exp. Hum Mou Ra Do Mini Hum Mou Ra […]
Conc. of W orki ng Vol ume i n Fi nal conc. At sol uti on assay incubation
577 m g / m L520 µ L0. […]

[3] = Plasma-protein binding by RED, mouse; type: in vitro ADME; settings: pH 7.2, read-out: Plasma-protein binding by RED (% unbound compound, average n=2)
Procedure: as §2

[4] = Plasma-protein binding by RED, range over three species; type: in vitro ADME; settings: pH 7.2, range over human, mouse, and rat, read-out: free fraction (plasma protein binding by RED)
Description: Next, we investigated the physiochemical and absorption, distribution, metabolism, and excretion (ADME) properties of compounds 3a, 3e, and 3f (Tables S5 and S6). […] The logD at pH 7.4 was below 0 for all three compounds (<−0.5 for compounds 3a and 3e). […] Overall, these features represent promising starting points for further development of this class of molecules.
as §2

Compound | In vitro plasma stability (% compound remaining after 23 h) (Plasma stability, human) | In vitro plasma stability (% compound remaining after 23 h) (Plasma stability, mouse) | solubility (Solubility screen) | fraction unbound at 4 h, 5 μM [1] | In vitro plasma stability (% compound remaining after 23 h) (Plasma stability, dog) | PmSiaT -TΔS° (PmSiaT; ITC) | PmSiaT ΔG° (PmSiaT; ITC) | PmSiaT ΔH° (PmSiaT; ITC) | Kd (PmSiaT; PmSiaT Kd, ITC, 25 °C) | Kd (PmSiaT; PmSiaT Kd, ITC, Table S4) | microsomal CLint at 1 µM [2] | Metabolic stability in human microsomes, Exp. 1 [2] | Metabolic stability in human microsomes, Exp. 2 [2] | fraction unbound at 4 h, 5 μM [3] | fraction unbound at 4 h, 5 μM [4] | affinity increase of binding for PmSiaT (PmSiaT; compared to the natural substrate Neu5Ac) | Kd (PmSiaT)
CC(=O)NC1C(OCc2cc(F)cc(F)c2)CC(O)(C(=O)O)OC1C(O)C(O)CO (centres unmarked) [Compound 3e] | 100% | 100% | > 95 µM | 0.74 | 100% | -15.7 kcal/mol | -7.12 kcal/mol | 8.58 kcal/mol | 6.2 ± 2.8 µM | 6.07 µM | < 10 µL/min/mg | < 10 µL/min/mg protein | < 10 µL/min/mg protein | 0.63 | 0.63 to 0.85 |  | 
CC(=O)NC1C(OCc2cc(Br)cc(Br)c2)CC(O)(C(=O)O)OC1C(O)C(O)CO (centres unmarked) [Compound 3f] | 91% | 100% | > 95 µM | 0.27 | 81% | -17.8 kcal/mol | -8.96 kcal/mol | 8.87 kcal/mol | 0.27 ± 0.14 µM | 0.272 µM | < 10 µL/min/mg | < 10 µL/min/mg protein | < 10 µL/min/mg protein | 0.23 | 0.21 to 0.27 | 180 fold | 
CC(=O)N[C@H]1[C@H]([C@H](O)[C@H](O)CO)OC(O)(C(=O)O)C[C@@H]1O (some centres unmarked) [Neu5Ac, 5-N-acetyl neuraminic acid, reference compound] |  |  |  |  |  | -12.6 kcal/mol | -5.86 kcal/mol | 6.72 kcal/mol |  |  |  |  |  |  |  |  | 50 ± 9 µM
CC(=O)NC1C(OCc2ccccc2)CC(O)(C(=O)O)OC1C(O)C(O)CO (centres unmarked) [Compound 3a] | 100% | 100% | > 95 µM | 0.85 | 100% | -13.9 kcal/mol | -6.91 kcal/mol | 7 kcal/mol | 9 ± 3.2 µM | 8.77 µM | < 10 µL/min/mg | < 10 µL/min/mg protein | < 10 µL/min/mg protein | 0.63 | 0.63 to 0.85 |  | 
